These results are taken from patent US9458141B2, “Low molecular weight thyroid stimulating hormone receptor (TSHR) agonists” (The United States of America, as represented by the …, priority 2008, dated 2016).

The test addresses T1, human TSHR (Homo sapiens, UniProt P16473).
T1 construct: expressed in transfected cells
Nature of the test: Homogeneous Time Resolved Fluorescence (HTRF) cAMP assay, TSHR cell line. In kind it is cell-based. Conditions: for Maximum Activity compared to TSH: 100% activity = response of 30 mU/ml TSH, 0% = DMSO control, in %; for AC50: HTRF cAMP, TSHR cell line, 30 minute incubation, read-out: AC50; for Emax: read-out: Maximum Activity compared to TSH, 100% activity = response of 30 mU/ml TSH, 0% = DMSO control.

The structures appear in SMILES notation.

T1 sequence (P16473 21-764): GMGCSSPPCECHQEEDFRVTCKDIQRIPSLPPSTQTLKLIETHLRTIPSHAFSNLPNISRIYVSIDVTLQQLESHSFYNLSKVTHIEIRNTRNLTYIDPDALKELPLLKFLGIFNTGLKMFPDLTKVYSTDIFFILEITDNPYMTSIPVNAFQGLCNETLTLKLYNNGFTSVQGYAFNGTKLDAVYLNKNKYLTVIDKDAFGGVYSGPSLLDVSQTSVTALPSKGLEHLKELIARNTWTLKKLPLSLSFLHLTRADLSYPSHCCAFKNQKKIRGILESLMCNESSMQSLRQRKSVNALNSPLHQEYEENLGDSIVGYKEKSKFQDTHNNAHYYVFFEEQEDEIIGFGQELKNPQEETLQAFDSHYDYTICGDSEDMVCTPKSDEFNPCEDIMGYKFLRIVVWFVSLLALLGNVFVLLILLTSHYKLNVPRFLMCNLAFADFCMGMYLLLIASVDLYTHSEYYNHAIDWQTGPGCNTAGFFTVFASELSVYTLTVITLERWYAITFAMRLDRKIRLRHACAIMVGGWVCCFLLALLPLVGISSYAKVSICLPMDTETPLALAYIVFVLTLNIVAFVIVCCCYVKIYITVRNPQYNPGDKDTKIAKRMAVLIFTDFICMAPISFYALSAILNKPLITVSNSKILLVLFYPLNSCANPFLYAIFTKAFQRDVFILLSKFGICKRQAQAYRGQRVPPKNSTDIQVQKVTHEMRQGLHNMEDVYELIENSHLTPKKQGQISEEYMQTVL

Consider `COc1ccc(C2Nc3ccccc3C(=O)N2Cc2cccnc2)cc1COc1ccc(NC(C)=O)cc1` (stereo not drawn) [Structure 111], for which the “Maximum Activity compared to TSH” value was 98.46 and the AC50 was 35.5 µM.
Regarding `COc1ccc(C(=O)N(Cc2ccco2)Cc2cccs2)c(O)c1` [Structure 112], the “Maximum Activity compared to TSH” value came to 60.92 and the AC50 was 15.8 µM.
As to `O=C(c1ccccc1O)N(Cc1ccco1)Cc1cccs1` [Structure 113], the AC50 came to 39.8 µM and the Emax was determined as 63.8%.
In the case of `COc1ccc(C(=O)N(Cc2ccccc2)Cc2ccccc2)c(O)c1` [Structure 114], the “Maximum Activity compared to TSH” value worked out at 51.15 and the AC50 turned out to be 25.1 µM.
For `COc1ccc(C2Nc3ccccc3C(=O)N2Cc2ccccn2)cc1COc1ccc(NC(C)=O)cc1` (stereo not drawn) [Structure 115] the same measures were 66.81 and 39.8 µM.
As to `COc1ccc(-c2nc3ccccc3c(=O)n2Cc2ccc(CNC(=O)CO)cc2)cc1COc1ccc(NC(C)=O)cc1` [Structure 116], the half-maximal activity concentration (AC50) was 35.5 µM and the Emax is 54.6%.
As for `COc1ccc(CN(Cc2ccccc2)C(=O)c2ccncc2)cc1COc1ccc(NC(C)=O)cc1` [Structure 117], the “Maximum Activity compared to TSH” value is reported as 87.19 and the AC50 worked out at 44.7 µM.
For `COc1ccc(C(=O)N(Cc2ccccc2)Cc2ccco2)c(O)c1` [Structure 118] the same measures were 96.91 and 28.2 µM.
For `COc1ccc(C2Nc3ccc(Cl)cc3C(=O)N2Cc2ccccc2)cc1COc1ccc(NC(C)=O)cc1` (stereo not drawn) [Structure 119] the same measures were 56.31 and 14.1 µM.
As to `COc1ccc(C(=O)N(Cc2ccccc2)Cc2ccccc2)cc1COc1ccc(NC(C)=O)cc1` [Structure 120], the AC50 was 15.8 µM and the Emax was determined as 40.5%.
For `COc1ccc(C(=O)N(Cc2ccco2)Cc2ccco2)c(O)c1` [Structure 121], the “Maximum Activity compared to TSH” value was found to be 38.00 and the AC50 was found to be 39.8 µM.
For `COc1ccc(C(=O)N(Cc2ccco2)Cc2ccco2)c(O)c1` [Structure 122], the “Maximum Activity compared to TSH” value is reported as 61.90 and the AC50 turned out to be 50.1 µM.
For the compound `COc1ccc(C2Nc3ccc(Cl)cc3C(=O)N2Cc2ccccc2)cc1COc1ccc(NC(C)=O)cc1` (stereo not drawn) [Structure 123], the “Maximum Activity compared to TSH” value was 83.18 and the AC50 came out at 14.1 µM.
As for `COc1ccc(CN(Cc2ccccc2)C(=O)c2ccc(OC)cc2O)cc1` [Structure 124], the “Maximum Activity compared to TSH” value is listed as 62.73 and the AC50 amounted to 31.6 µM.
On to `COc1ccc(C2Nc3ccccc3C(=O)N2Cc2ccncc2)cc1COc1ccc(NC(C)=O)cc1` (stereo not drawn) [Structure 125], for which the AC50 turned out to be 39.8 µM and the Emax was determined as 56.4%.
For the compound `COc1ccc(-c2nc3ccccc3c(=O)n2Cc2ccc(CNC(=O)CO)cc2)cc1COc1ccc(NC(C)=O)cc1` [Structure 126], the “Maximum Activity compared to TSH” value is 36.00 and the AC50 came to 17.8 µM.
As to `COc1ccc(C2Nc3ccccc3C(=O)N2Cc2ccccc2)cc1COc1cccc(C)c1` (stereo not drawn) [Structure 127], the AC50 stood at 14.1 µM and the Emax was found to be 38%.
Regarding `COc1ccc(C2Nc3ccccc3C(=O)N2Cc2ccc(CNC(=O)CO)cc2)cc1COc1ccc(NC(C)=O)cc1` (stereo not drawn) [Structure 128], the “Maximum Activity compared to TSH” value is 69.13 and the AC50 is 39.8 µM.
For `O=C(c1ccccc1O)N(Cc1ccccc1)Cc1ccccc1` [Structure 129] the same measures were 51.77 and 28.2 µM.
On to `COc1ccc(CN(Cc2ccccc2)C(=O)COC(C)=O)cc1COc1ccc(NC(C)=O)cc1` [Structure 130], for which the “Maximum Activity compared to TSH” value was determined as 53.70 and the AC50 turned out to be 50.1 µM.
As for `COc1ccc(C(=O)N(Cc2ccccc2)Cc2ccccc2)c(O)c1` [Structure 131], the “Maximum Activity compared to TSH” value is 99.01 and the AC50 was found to be 35.5 µM.
